Source: patent US8618152B2, “Inhibitors of serine proteases, particularly HCV NS3-NS4A proteases” (Vertex Pharmaceuticals Incorporated, priority 2003, dated 2013)
*1 amine or outer side, *2 acyl side, *3 side chain or, on linkers, in order; H or OH if unused. Where a SMILES comes first, the peptide text is derived from it. [ ]: non-standard residue; d: D form. The star is where a group is joined. ξ: configuration not given here. Pro(trans-3-iPr) = CC(C)[C@H]1CCN[C@@H]1C(=O)O; Pro(3S-Et) = CC[C@H]1CCN[C@@H]1C(=O)O; Phe(2-Me) = Cc1ccccc1C[C@H](N)C(=O)O; Pyrazinecarbonyl = O=C(c1cnccn1)*; X1 = CCCC(N[*:1])C(=O)C(=O)[*:2]; Ile(3ξ) = CCC(C)[C@H](N)C(=O)O; aThr = C[C@H](O)[C@H](N)C(=O)O; Chg = N[C@H](C(=O)O)C1CCCCC1; Tle = CC(C)(C)[C@H](N)C(=O)O

Assays:
[1] = molecular target: HCV NS3-NS4A protease (tNS3 with KK4A) (Hepatitis C virus genotype 1a, UniProt P27958); experiment: HCV Ki assay (HPLC microbore separation of 5AB substrate and products); assay type: biochemical; details: 25 nM tNS3, 25 μM KK4A, 25 μM 5AB substrate, 20 min at 30 C; read-out: Ki
Description: HPLC Microbore Method for Separation of 5AB Substrate and Products
Substrate: NH2-Glu-Asp-Val-Val-(alpha)Abu-Cys-Ser-Met-Ser-Tyr-COOH
A stock solution of 20 mM 5AB (or concentration of your choice) was made in DMSO w/0.2M DTT. This was stored in aliquots at −20 C.
Buffer: 50 mM HEPES, pH 7.8; 20% glycerol; 100 mM NaCl
Total assay volume was 100 μL
The buffer, KK4A, DTT, and tNS3 were combined; distributed 78 μL each into wells of 96 well plate. This was incubated at 30 C for ˜5-10 min.
2.5 μL of appropriate concentration of test compound was dissolved in DMSO (DMSO only for control) and added to each well. This was incubated at room temperature for 15 min.
Initiated reaction by addition of 20 μL of 250 μM 5AB substrate (25 μM concentration is equivalent or slightly lower than the Km for 5AB).
Incubated for 20 min at 30 C.
Terminated reaction by addition of 25 μL of 10% TFA
Transferred 120 μL aliquots to HPLC vials
Separated SMSY product from substrate and KK4A by the following method:
Microbore Separation Method:
Instrumentation: Agilent 1100
Column thermostated chamber G1316A
Diode array detector G1315A
Solvent A=HPLC grade water+0.1% TFA
Solvent B=HPLC grade acetonitrile+0.1% TFA
Stop time: 17 min Post-run time: 10 min.

[2] = system: Cells containing hepatitis C virus (HCV) replicon; experiment: HCV replicon cell assay; assay type: cell-based; details: 50% inhibition of HCV RNA level, 48-hour incubation, Taqman real-time RT-PCR, read-out: IC50
Description: HCV Replicon Cell Assay Protocol
Cells containing hepatitis C virus (HCV) replicon were maintained in DMEM containing 10% fetal bovine serum (FBS), 0.25 mg per ml of G418, with appropriate supplements (media A).
On day 1, replicon cell monolayer was treated with a trypsin:EDTA mixture, removed, and then media A was diluted into a final concentration of 100,000 cells per ml with. 10,000 cells in 100 ul were plated into each well of a 96-well tissue culture plate, and cultured overnight in a tissue culture incubator at 37° C.
On day 2, compounds (in 100% DMSO) were serially diluted into DMEM containing 2% FBS, 0.5% DMSO, with appropriate supplements (media B). The final concentration of DMSO was maintained at 0.5% throughout the dilution series.
Media on the replicon cell monolayer was removed, and then media B containing various concentrations of compounds was added. Media B without any compound was added to other wells as no compound controls.
Cells were incubated with compound or 0.5% DMSO in media B for 48 hours in a tissue culture incubator at 37° C. At the end of the 48-hour incubation, the media was removed, and the replicon cell monolayer was washed once with PBS and stored at −80° C. prior to RNA extraction.
Culture plates with treated replicon cell monolayers were thawed, and a fixed amount of another RNA virus, such as Bovine Viral Diarrhea Virus (BVDV) was added to cells in each well. RNA extraction reagents (such as reagents from RNeasy kits) were added to the cells immediately to avoid degradation of RNA. Total RNA was extracted according the instruction of manufacturer with modification to improve extraction efficiency and consistency. Finally, total cellular RNA, including HCV replicon RNA, was eluted and stored at −80° C. until further processing.
A Taqman real-time RT-PCR quantification assay was set up with two sets of specific primers and probe. One was for HCV and the other was for BVDV. Total RNA extractants from treated HCV replicon cells was added to the PCR reactions for quantification of both HCV and BVDV RNA in the same PCR well. Experimental failure was flagged and rejected based on the level of BVDV RNA in each well. The level of HCV RNA in each well was calculated according to a standard curve run in the same PCR plate. The percentage of inhibition or decrease of HCV RNA level due to compound treatment was calculated using the DMSO or no compound control as 0% of inhibition. The IC50 (concentration at which 50% inhibition of HCV RNA level is observed) was calculated from the titration curve of any given compound.

HCV NS3-NS4A protease (tNS3 with KK4A), sequence (P27958 1027-1208): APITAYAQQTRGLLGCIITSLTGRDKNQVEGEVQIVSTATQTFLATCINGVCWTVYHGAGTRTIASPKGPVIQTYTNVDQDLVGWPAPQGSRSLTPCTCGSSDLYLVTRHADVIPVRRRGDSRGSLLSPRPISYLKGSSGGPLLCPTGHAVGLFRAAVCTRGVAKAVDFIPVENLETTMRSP

SMILES	Ki [1]	IC50 [2]
CCCC(NC(=O)[C@@H]1[C@@H](CC2CC2)CCN1C(=O)[C@@H](NC(=O)[C@@H](NC(=O)c1cnccn1)C(C)C)C(C)C)C(=O)C(=O)N[C@@H](Cc1ccccc1)C(=O)O (some centres unmarked) [Compound 20]	100 to 500 nM	–
CCC[C@H](NC(=O)[C@@H]1[C@@H](C2CCCCC2)CCN1C(=O)[C@@H](NC(=O)[C@@H](NC(=O)c1cc([N+](=O)[O-])c[nH]1)C1CCCCC1)C(C)(C)C)C(=O)C(=O)NC1CC1 [Compound 71]	< 100 nM	> 1000 nM
CCC[C@H](NC(=O)[C@@H]1[C@@H](C(C)(C)C)CCN1C(=O)[C@@H](NC(=O)[C@@H](NC(=O)c1cnccn1)C1CCCCC1)C(C)(C)C)C(=O)C(=O)NC1CC1 [Compound 73]	100 to 500 nM	> 1000 nM
CCCC(NC(=O)[C@@H]1[C@@H](CC)CCN1C(=O)[C@@H](NC(=O)[C@@H](NC(=O)c1cnccn1)C1CCCCC1)C1CCCCC1)C(=O)C(=O)N[C@@H](C)c1ccccc1 (some centres unmarked) [Compound 50]	100 to 500 nM	–
CCCC(NC(=O)[C@@H]1C(CC)CCN1C(=O)[C@@H](NC(=O)[C@@H](NC(=O)c1cnccn1)C(C)C)C(C)C)C(=O)C(=O)N[C@@H](Cc1ccccc1)C(=O)O (some centres unmarked) [Compound 5]	< 100 nM	–
CCC[C@H](NC(=O)[C@@H]1[C@@H](C2CCCCC2)CCN1C(=O)[C@@H](NC(=O)[C@@H](NC(=O)c1ccc[nH]1)C1CCCCC1)C(C)(C)C)C(=O)C(=O)NC1CC1 [Compound 72]	< 100 nM	500 to 1000 nM
CCCC(NC(=O)[C@@H]1[C@@H](C(C)CC)CCN1C(=O)[C@@H](NC(=O)[C@@H](NC(=O)c1cnccn1)C(C)C)C(C)C)C(=O)C(=O)N[C@@H](Cc1ccccc1)C(=O)O (some centres unmarked) [Compound 57]	< 100 nM	–
CCCC(NC(=O)[C@@H]1[C@@H](CC)CCN1C(=O)[C@@H](NC(=O)[C@@H](NC(=O)c1cnccn1)C(C)C)C1CCCCC1)C(=O)C(=O)N[C@@H](Cc1ccccc1)C(=O)O (stereo partly drawn) [Compound 32] (Pyrazinecarbonyl-V[Chg][Pro(3S-Et)][X1]F-OH)	100 to 500 nM	–
CCCC(NC(=O)[C@@H]1[C@@H](CC)CCN1C(=O)[C@@H](NC(=O)[C@@H](NC(=O)c1cnccn1)C(C)C)[C@H](C)OC)C(=O)C(=O)N[C@@H](Cc1ccccc1)C(=O)O (stereo partly drawn) [Compound 33] (Pyrazinecarbonyl-V[aThr](Me)[Pro(3S-Et)][X1]F-OH)	100 to 500 nM	–
CCCC(NC(=O)[C@@H]1[C@@H](CC)CCN1C(=O)[C@@H](NC(=O)[C@@H](NC(=O)c1cnccn1)C1CCCCC1)C(C)C)C(=O)C(=O)NC1CC1 (some centres unmarked) [Compound 45]	> 500 nM	–
CCCC(NC(=O)[C@@H]1[C@@H](CC)CCN1C(=O)[C@@H](NC(=O)[C@@H](NC(=O)c1cnccn1)C1CCCCC1)C(C)CC)C(=O)C(=O)N[C@@H](C)c1ccccc1 (some centres unmarked) [Compound 51]	100 to 500 nM	–
CCCC(NC(=O)[C@@H]1[C@@H](CC)CCN1C(=O)[C@@H](NC(=O)[C@@H](NC(=O)c1cnccn1)C(C)C)[C@@H](C)OCC)C(=O)C(=O)N[C@@H](Cc1ccccc1)C(=O)O (stereo partly drawn) [Compound 36] (Pyrazinecarbonyl-VT(Et)[Pro(3S-Et)][X1]F-OH)	100 to 500 nM	–
CCCC(NC(=O)[C@@H]1[C@@H](CC)CCN1C(=O)[C@@H](NC(=O)[C@@H](NC(=O)c1cnccn1)C1CCCCC1)C1CCCCC1)C(=O)C(=O)NC1CC1 (some centres unmarked) [Compound 46]	100 to 500 nM	–
CCCC(NC(=O)[C@@H]1[C@@H](CC)CCN1C(=O)[C@@H](NC(=O)[C@@H](NC(=O)c1cnccn1)C1CCCCC1)C(C)CC)C(=O)C(=O)N[C@@H](Cc1ccccc1)C(=O)O (stereo partly drawn) [Compound 29] (Pyrazinecarbonyl-[Chg][Ile(3ξ)][Pro(3S-Et)][X1]F-OH)	< 100 nM	–
CCCC(NC(=O)[C@@H]1[C@@H](CC)CCN1C(=O)[C@@H](NC(=O)[C@@H](NC(=O)c1cnccn1)C1CCCCC1)C(C)C)C(=O)C(=O)N[C@@H](Cc1ccccc1)C(=O)O (stereo partly drawn) [Compound 26] (Pyrazinecarbonyl-[Chg]V[Pro(3S-Et)][X1]F-OH)	< 100 nM	–
CCCC(NC(=O)[C@@H]1[C@@H](CC)CCN1C(=O)[C@@H](NC(=O)[C@H](Cc1ccccc1C)NC(=O)c1cnccn1)C(C)C)C(=O)C(=O)N[C@@H](Cc1ccccc1)C(=O)O (stereo partly drawn) [Compound 27] (Pyrazinecarbonyl-[Phe(2-Me)]V[Pro(3S-Et)][X1]F-OH)	< 100 nM	–
CCCC(NC(=O)[C@@H]1[C@@H](CC)CCN1C(=O)[C@@H](NC(=O)[C@@H](NC(=O)c1ncc[nH]1)C1CCCCC1)C(C)C)C(=O)C(=O)NC1CC1 (some centres unmarked) [Compound 53]	100 to 500 nM	–
CCCC(NC(=O)[C@@H]1[C@@H](CC)CCN1C(=O)[C@@H](NC(=O)[C@@H](NC(=O)c1cnccn1)C(c1ccccc1)c1ccccc1)C(C)C)C(=O)C(=O)NC1CC1 (some centres unmarked) [Compound 60]	–	> 1000 nM
CCCC(NC(=O)[C@@H]1[C@@H](CC)CCN1C(=O)[C@@H](NC(=O)[C@@H](NC(=O)c1cnccn1)C(C)C)C(C)CC)C(=O)C(=O)N[C@@H](Cc1ccccc1)C(=O)O (stereo partly drawn) [Compound 30] (Pyrazinecarbonyl-V[Ile(3ξ)][Pro(3S-Et)][X1]F-OH)	100 to 500 nM	–
CCCC(NC(=O)[C@@H]1[C@@H](CC)CCN1C(=O)[C@@H](NC(=O)[C@@H](NC(=O)c1cnccn1)C(C)C)[C@@H](C)OC)C(=O)C(=O)N[C@@H](Cc1ccccc1)C(=O)O (stereo partly drawn) [Compound 35] (Pyrazinecarbonyl-VT(Me)[Pro(3S-Et)][X1]F-OH)	> 500 nM	–
CCCC(NC(=O)[C@@H]1[C@@H](C)CCN1C(=O)[C@@H](NC(=O)[C@@H](NC(=O)c1cnccn1)C(C)C)C(C)C)C(=O)C(=O)N[C@@H](Cc1ccccc1)C(=O)O (some centres unmarked) [Compound 22]	100 to 500 nM	–
CCCC(NC(=O)[C@@H]1[C@@H](CC)CCN1C(=O)[C@@H](NC(=O)[C@@H](NC(=O)c1cnccn1)C1CCCCC1)C1CCCCC1)C(=O)C(=O)N[C@@H](Cc1ccccc1)C(=O)O (stereo partly drawn) [Compound 42] (Pyrazinecarbonyl-[Chg][Chg][Pro(3S-Et)][X1]F-OH)	< 100 nM	–
CCCC(NC(=O)[C@@H]1[C@@H](CC)CCN1C(=O)[C@@H](NC(=O)[C@@H](NC(=O)c1cnccn1)C(C)C)C(C)(C)C)C(=O)C(=O)N[C@@H](Cc1ccccc1)C(=O)O (stereo partly drawn) [Compound 31] (Pyrazinecarbonyl-V[Tle][Pro(3S-Et)][X1]F-OH)	< 100 nM	–
CCCC(NC(=O)[C@@H]1[C@@H](CC)CCN1C(=O)[C@@H](NC(=O)[C@H](CC(C)C)NC(=O)c1cnccn1)C(C)C)C(=O)C(=O)N[C@@H](Cc1ccccc1)C(=O)O (stereo partly drawn) [Compound 28] (Pyrazinecarbonyl-LV[Pro(3S-Et)][X1]F-OH)	< 100 nM	–
CCCC(NC(=O)[C@@H]1[C@@H](C(=O)OC)CCN1C(=O)[C@@H](NC(=O)[C@@H](NC(=O)c1cnccn1)C(C)C)C(C)C)C(=O)C(=O)N[C@@H](Cc1ccccc1)C(=O)O (some centres unmarked) [Compound 15]	100 to 500 nM	–
C=C[C@H]1CCN(C(=O)[C@@H](NC(=O)[C@@H](NC(=O)c2cnccn2)C(C)C)C(C)C)[C@@H]1C(=O)NC(CCC)C(=O)C(=O)N[C@@H](Cc1ccccc1)C(=O)O (some centres unmarked) [Compound 19]	100 to 500 nM	–
CCCC(NC(=O)[C@@H]1[C@@H](C(C)C)CCN1C(=O)[C@@H](NC(=O)[C@@H](NC(=O)c1cnccn1)C(C)C)C(C)C)C(=O)C(=O)N[C@@H](Cc1ccccc1)C(=O)O (stereo partly drawn) [Compound 16] (Pyrazinecarbonyl-VV[Pro(trans-3-iPr)][X1]F-OH)	100 to 500 nM	–
CCCC(NC(=O)[C@@H]1[C@@H](CC)CCN1C(=O)[C@@H](NC(=O)[C@@H](NC(=O)c1cnccn1)C1CCCCC1)C(C)C)C(=O)C(=O)N[C@@H](C)c1ccccc1 (some centres unmarked) [Compound 43]	100 to 500 nM	–
CCCC(NC(=O)[C@@H]1[C@@H](CC)CCN1C(=O)[C@@H](NC(=O)[C@@H](NC(=O)c1cnccn1)C1CCCCC1)C(C)CC)C(=O)C(=O)NC1CC1 (some centres unmarked) [Compound 25]	100 to 500 nM	–
